The target in one assay is T1, HprK/P (Brucella melitensis, UniProt Q8YE44).
T1 construct: gene BMEI2034

A further assay has as its target T2, EI^Ntr (Brucella melitensis, UniProt Q8YJ96).
T2 construct: gene BMEI0190
As to conditions: labelled compound; 10 µM [32P]PEP, NPr as acceptor, 5 mM MgCl2, pH 7.4, 37°C; covalent phosphoryl transfer.

The structures appear in SMILES notation. Read-outs that look alike come from different tables or passages of the source.

T1 sequence (Q8YE44 1-159): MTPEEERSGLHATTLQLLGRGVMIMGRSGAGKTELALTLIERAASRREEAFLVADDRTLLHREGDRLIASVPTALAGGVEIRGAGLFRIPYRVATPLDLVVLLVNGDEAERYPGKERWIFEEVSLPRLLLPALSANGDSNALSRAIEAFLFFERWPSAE
T2 sequence (Q8YJ96 1-756): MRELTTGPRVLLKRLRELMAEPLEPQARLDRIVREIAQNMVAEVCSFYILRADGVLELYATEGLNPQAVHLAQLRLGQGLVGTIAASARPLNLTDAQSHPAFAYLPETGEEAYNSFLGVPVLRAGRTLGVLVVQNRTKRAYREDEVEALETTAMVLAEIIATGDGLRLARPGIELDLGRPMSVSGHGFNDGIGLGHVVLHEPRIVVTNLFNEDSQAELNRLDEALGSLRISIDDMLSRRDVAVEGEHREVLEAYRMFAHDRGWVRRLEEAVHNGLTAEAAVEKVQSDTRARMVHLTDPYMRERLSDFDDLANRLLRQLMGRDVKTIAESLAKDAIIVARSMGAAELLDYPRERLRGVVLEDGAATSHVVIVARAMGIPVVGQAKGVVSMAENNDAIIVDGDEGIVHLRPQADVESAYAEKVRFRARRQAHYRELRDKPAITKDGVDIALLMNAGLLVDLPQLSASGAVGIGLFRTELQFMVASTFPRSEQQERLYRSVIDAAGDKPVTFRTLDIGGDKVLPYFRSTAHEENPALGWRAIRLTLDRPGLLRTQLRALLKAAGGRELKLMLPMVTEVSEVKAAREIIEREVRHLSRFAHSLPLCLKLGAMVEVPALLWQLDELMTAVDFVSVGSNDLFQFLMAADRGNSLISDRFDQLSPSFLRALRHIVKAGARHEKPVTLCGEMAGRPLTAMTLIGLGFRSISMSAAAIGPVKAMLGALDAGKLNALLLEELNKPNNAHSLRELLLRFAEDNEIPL

`Nc1ncnc2c1ncn2[C@@H]1O[C@H](COP(=O)(O)OP(=O)(O)OP(=O)(O)O)[C@@H](O)[C@H]1O` [ATP]: the “32P NPr kinase assay, SDS-PAGE, phosphorimaging” value at HprK/P (labelled compound, 25 µM [γ-32P]ATP, NPr as acceptor, no FBP or KPi, 5 mM MgCl2, pH 7.4, 37°C) is “HprK/P phosphorylated wild type NPr and NPrH30A in an ATP-dependent way”.
Regarding `C=C(OP(=O)(O)O)C(=O)O` [PEP], the “32P phosphotransfer to NPr, SDS-PAGE, phosphorimaging” value at EI^Ntr is “the additional presence of EI allowed the phosphorylation of wild-type NPr”.
In the case of `O=P(O)(O)OP(=O)(O)O` [PPi], the “32P NPr kinase assay, SDS-PAGE, phosphorimaging” value on HprK/P is on record as “With both phosphoryl group donors, HprK/P was active as a kinase”.
Same read-out and setting: under `O=P(O)(O)O` [Pi] stands “inhibition of both the ATP- and PPi-dependent kinase activities of B. melitensis HprK/P”.

These data come from PMC2937029 (PLoS ONE, 2010).
